According to BindingDB's records for doi:10.1021/jm00021a021 (Tsukuba Research Institute, 1995):

Target: T1, Endothelin-1 receptor (Sus scrofa, UniProt Q29010)
T1 sequence (Q29010 whole entry): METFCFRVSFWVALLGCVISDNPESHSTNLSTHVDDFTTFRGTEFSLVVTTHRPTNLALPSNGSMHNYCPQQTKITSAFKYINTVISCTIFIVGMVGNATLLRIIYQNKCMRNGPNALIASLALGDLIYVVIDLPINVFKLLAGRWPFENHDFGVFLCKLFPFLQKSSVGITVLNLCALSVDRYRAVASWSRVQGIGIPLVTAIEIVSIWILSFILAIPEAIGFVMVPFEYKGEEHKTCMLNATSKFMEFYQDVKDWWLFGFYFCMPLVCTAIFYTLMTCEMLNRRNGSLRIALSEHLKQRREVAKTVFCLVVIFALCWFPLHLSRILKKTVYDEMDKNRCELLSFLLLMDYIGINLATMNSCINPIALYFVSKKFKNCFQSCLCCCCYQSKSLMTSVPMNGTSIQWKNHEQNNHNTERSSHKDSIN
Experiment: The compound was tested for binding inhibitory activity against Endothelin A receptor from porcine aortic smooth muscle membranes.

IC50: 440 nM
SMILES: CC(C)C[C@@H]1NC(=O)[C@@H](CC(C)C)NC(=O)[C@H](C)NC(=O)[C@@H](CC(=O)O)NC(=O)[C@@H](Cc2c[nH]c3ccccc23)NC1=O
